Measured values reported in patent US8772500B2, “TRPV3 modulators” (AbbVie Inc., priority 2011, dated 2014).
Where two headings read alike, the source gives them in different places.

Legend:
[1] = In vitro human microsomal stability assay; format: in vitro ADME
How it was run: (§1)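 Compounds were incubated at 37 °C with Sprague-Dawley rat liver microsomes (rat assay) or human liver microsomes (human assay) to measure metabolic stability. NADPH was added, including to the time-zero samples.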

[2] = In vitro rat microsomal stability assay; format: in vitro ADME, rat (Sprague-Dawley)
How it was run: as §1

CD1 mice = assay: In vivo chronic constriction injury (CCI) model of neuropathic pain, mechanical allodynia (von Frey); details: 100 mg/kg oral dose, 1 hour after dosing, average of eight mice; vehicle 0%, control 100%
Method: Test compounds were evaluated for analgesic effect in an in vivo chronic constriction injury (CCI) model of neuropathic pain. CD1 mice (Charles River) were used for these studies. Prior to testing (2-4 weeks) animals underwent a surgical procedure consisting of approximately 3 loose ligatures around the sciatic nerve. Following sterilization procedures, under isofluorane anesthetic, a 1.5 cm incision was made dorsal to the pelvis. The biceps femoris and gluteous superficialis (right side) were separated and the sciatic nerve exposed, isolated, and 2-4 loose ligatures (5-0 chromic gut) with less than 1 mm spacing were placed around it. Following hemostasis, the wound was sutured (layer of muscle closed with 5-0 nylon suture, and the wound closed with surgical staples) and coated with iodine. The mice were allowed to recover on a warming plate and were returned to their home cages (soft bedding) when able to walk on their own.
Two to four weeks after the surgery, test compound was administered orally (PO) in these mice, and mechanical allodynia was evaluated 1 hour after oral dosing where the threshold to response was assessed using calibrated von Frey monofilaments. The von Frey monofilaments were applied to the hind paw at increasing forces until the animal responded by lifting its paw. […]
Each test compound was evaluated in eight different mice. […]

human TRPV3 = molecular target: T1, human TRPV3 (Homo sapiens, UniProt Q8NET8); assay: In vitro antagonism of recombinant human TRPV3 activation (FLIPR Tetra calcium assay, 2-APB as agonist); format: cell-based; details: HEK293 cells stably expressing human TRPV3, 2-APB 80 μM
T1 construct: expressed in transfected cells
T1 sequence (Q8NET8 1-790): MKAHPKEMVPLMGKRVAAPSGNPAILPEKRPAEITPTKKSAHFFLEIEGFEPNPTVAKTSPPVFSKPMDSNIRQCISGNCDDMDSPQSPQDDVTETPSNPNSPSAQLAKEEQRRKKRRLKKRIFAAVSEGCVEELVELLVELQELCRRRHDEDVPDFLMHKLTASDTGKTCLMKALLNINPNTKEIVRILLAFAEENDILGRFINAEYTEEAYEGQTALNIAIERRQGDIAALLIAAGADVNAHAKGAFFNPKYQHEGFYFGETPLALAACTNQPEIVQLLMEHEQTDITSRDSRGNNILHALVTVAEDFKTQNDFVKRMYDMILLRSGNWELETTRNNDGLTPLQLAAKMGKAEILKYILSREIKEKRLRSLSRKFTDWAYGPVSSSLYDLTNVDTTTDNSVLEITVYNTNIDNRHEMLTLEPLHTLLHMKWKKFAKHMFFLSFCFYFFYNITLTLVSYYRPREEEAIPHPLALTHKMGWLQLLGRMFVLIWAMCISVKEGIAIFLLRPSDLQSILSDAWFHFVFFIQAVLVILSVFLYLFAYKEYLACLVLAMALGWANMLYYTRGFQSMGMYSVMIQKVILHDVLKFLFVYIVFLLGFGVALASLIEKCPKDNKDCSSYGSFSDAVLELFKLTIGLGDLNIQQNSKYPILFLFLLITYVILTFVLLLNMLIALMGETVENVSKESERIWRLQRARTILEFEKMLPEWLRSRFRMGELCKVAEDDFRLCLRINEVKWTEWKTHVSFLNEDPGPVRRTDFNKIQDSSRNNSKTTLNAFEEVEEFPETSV
How it was run: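 HEK293 cells stably expressing human TRPV3, loaded with Calcium-4 dye for 90-120 min; compound added 3 min before 2-APB at 80 μM (its EC80). Fluorescence (max minus min) over 10 min expressed as % of maximal 2-APB response without antagonist; IC50 mostly averaged from n≧2 runs.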

[3] = 0.5 μM substrate, 0.25 mg/mL microsomal protein, pH 7.4, 37° C., NADPH, 30 minutes
[4] = range class, read-out: IC50 (reported range)
[5] = Sprague-Dawley, rat, 0.5 h, 0.5 μM, pH 7.4

With C[C@]1(O)C[C@](c2cc(C(F)(F)F)ccn2)([C@H](O)c2ccccn2)C1 (relative stereo) [Example 285, cis-3-[(S)-hydroxy(pyridin-2-yl)methyl]-1-methyl-3-[4-(trifluoromethyl)-pyridin-2-yl]cyclobutanol] the “HUMAN […] (% REMAINING AFTER 30 MINUTES)” value [1, 3] was 83%, the “RAT […] (% REMAINING AFTER 30 MINUTES)” value [2, 3] was 69% and the “% EFFECT” value (CD1 mice) was 59%.

With OC(c1ccccn1)C1(C2CCCOC2)CCC1 (stereo not shown) [Example 281, pyridin-2-yl[1-(tetrahydro-2H-pyran-3-yl)cyclobutyl]methanol] the IC50 (human TRPV3; [4]) was 5100 to 20000 nM, the “HUMAN MICROSOMAL STABILITY (% REMAINING AFTER 30 MINUTES)” value ([1]; human, 0.5 h, 0.5 μM, pH 7.4) was >85% and the “RAT MICROSOMAL STABILITY (% REMAINING AFTER 30 MINUTES)” value [2, 5] was 0.054%.

With OC1CC(c2cc(C(F)(F)F)ccn2)(C(O)c2ccccn2)C1 [Example 282, cis-3-[(S)-hydroxy(pyridin-2-yl)methyl]-3-[4-(trifluoromethyl)pyridin-2-yl]-cyclobutanol] the IC50 (human TRPV3; [4]) was 501 to 1000 nM, the “HUMAN MICROSOMAL STABILITY (% REMAINING AFTER 30 MINUTES)” value ([1]; human, 0.5 h, 0.5 μM, pH 7.4) was >85% and the “RAT MICROSOMAL STABILITY (% REMAINING AFTER 30 MINUTES)” value [2, 5] was >85%.

For OC1CC(c2cc(C(F)(F)F)ccn2)(C(O)c2ccccn2)C1 [Example 283, trans-3-[(S)-hydroxy(pyridin-2-yl)methyl]-3-[4-(trifluoromethyl)pyridin-2-yl]cyclobutanol], the IC50 (human TRPV3; [4]) was 501 to 1000 nM, the “HUMAN MICROSOMAL STABILITY (% REMAINING AFTER 30 MINUTES)” value ([1]; human, 0.5 h, 0.5 μM, pH 7.4) was >85% and the “RAT MICROSOMAL STABILITY (% REMAINING AFTER 30 MINUTES)” value [2, 5] was >85%.

For CC(=O)O[C@H](c1ccccn1)C1(c2ccc(OC(F)(F)F)cc2)CCC1 [Example 288, (S)-pyridin-2-yl{1-[4-(trifluoromethoxy)phenyl]cyclobutyl}methyl acetate], the IC50 (human TRPV3; [4]) was 5100 to 20000 nM, the “HUMAN MICROSOMAL STABILITY (% REMAINING AFTER 30 MINUTES)” value ([1]; human, 0.5 h, 0.5 μM, pH 7.4) was <0.01% and the “RAT MICROSOMAL STABILITY (% REMAINING AFTER 30 MINUTES)” value [2, 5] was <0.01%.

In the case of Cc1cc(C(F)(F)F)cc(C2([C@@H](O)c3ccccn3)CC(=O)C2)n1 [Example 291, 3-[(R)-hydroxy(pyridin-2-yl)methyl]-3-[6-methyl-4-(trifluoromethyl)pyridin-2-yl]cyclobutanone], the IC50 (human TRPV3; [4]) is reported as 5100 to 20000 nM, the “HUMAN MICROSOMAL STABILITY (% REMAINING AFTER 30 MINUTES)” value ([1]; human, 0.5 h, 0.5 μM, pH 7.4) is reported as >85% and the “RAT MICROSOMAL STABILITY (% REMAINING AFTER 30 MINUTES)” value [2, 5] is reported as 53%.

For OC(c1ccccn1)C1(c2nc3ccc(Cl)cc3s2)CCC1 (stereo not shown) [Example 292, [1-(6-chloro-1,3-benzothiazol-2-yl)cyclobutyl](pyridin-2-yl)methanol], the IC50 (human TRPV3; [4]) was 501 to 1000 nM, the “HUMAN MICROSOMAL STABILITY (% REMAINING AFTER 30 MINUTES)” value ([1]; human, 0.5 h, 0.5 μM, pH 7.4) was 19% and the “RAT MICROSOMAL STABILITY (% REMAINING AFTER 30 MINUTES)” value [2, 5] was 5.4%.

With OC(c1ccccn1)C1(c2nc3ccc(F)cc3s2)CCC1 (stereo not shown) [Example 300, [1-(6-fluoro-1,3-benzothiazol-2-yl)cyclobutyl](pyridin-2-yl)methanol] the IC50 (human TRPV3; [4]) was 1100 to 5000 nM, the “HUMAN MICROSOMAL STABILITY (% REMAINING AFTER 30 MINUTES)” value ([1]; human, 0.5 h, 0.5 μM, pH 7.4) was 35% and the “RAT MICROSOMAL STABILITY (% REMAINING AFTER 30 MINUTES)” value [2, 5] was 0.020%.

For OC(c1ccccn1)C1(c2nc3ccc(Cl)cc3o2)CCC1 (stereo not shown) [Example 301, [1-(6-chloro-1,3-benzoxazol-2-yl)cyclobutyl](pyridin-2-yl)methanol], the IC50 (human TRPV3; [4]) was 5100 to 20000 nM, the “HUMAN MICROSOMAL STABILITY (% REMAINING AFTER 30 MINUTES)” value ([1]; human, 0.5 h, 0.5 μM, pH 7.4) was 57% and the “RAT MICROSOMAL STABILITY (% REMAINING AFTER 30 MINUTES)” value [2, 5] was 22%.

With OC1CC(c2cncc(C(F)(F)F)c2)(C(O)c2ccccn2)C1 [Example 303, cis-3-[(S)-hydroxy(pyridin-2-yl)methyl]-3-[5-(trifluoromethyl)pyridin-3-yl]-cyclobutanol] the IC50 (human TRPV3; [4]) was 501 to 1000 nM, the “HUMAN MICROSOMAL STABILITY (% REMAINING AFTER 30 MINUTES)” value ([1]; human, 0.5 h, 0.5 μM, pH 7.4) was 80% and the “RAT MICROSOMAL STABILITY (% REMAINING AFTER 30 MINUTES)” value [2, 5] was 32%.

With OC1CC(c2cncc(C(F)(F)F)c2)(C(O)c2ccccn2)C1 [Example 304, trans-3-[(S)-hydroxy(pyridin-2-yl)methyl]-3-[5-(trifluoromethyl)pyridin-3-yl]cyclobutanol] the IC50 (human TRPV3; [4]) was 50 to 500 nM, the “HUMAN MICROSOMAL STABILITY (% REMAINING AFTER 30 MINUTES)” value ([1]; human, 0.5 h, 0.5 μM, pH 7.4) was >85% and the “RAT MICROSOMAL STABILITY (% REMAINING AFTER 30 MINUTES)” value [2, 5] was 44%.

In the case of OC1CC(c2ccnc(C(F)(F)F)c2)(C(O)c2ccccn2)C1 [Example 305, cis-3-[(S)-hydroxy(pyridin-2-yl)methyl]-3-[2-(trifluoromethyl)pyridin-4-yl]-cyclobutanol], the IC50 (human TRPV3; [4]) is reported as 50 to 500 nM, the “HUMAN MICROSOMAL STABILITY (% REMAINING AFTER 30 MINUTES)” value ([1]; human, 0.5 h, 0.5 μM, pH 7.4) is reported as 63% and the “RAT MICROSOMAL STABILITY (% REMAINING AFTER 30 MINUTES)” value [2, 5] is reported as 49%.

For OC1CC(c2ccnc(C(F)(F)F)c2)(C(O)c2ccccn2)C1 [Example 306, trans-3-[(S)-hydroxy(pyridin-2-yl)methyl]-3-[2-(trifluoromethyl)pyridin-4-yl]cyclobutanol], the IC50 (human TRPV3; [4]) was 50 to 500 nM, the “HUMAN MICROSOMAL STABILITY (% REMAINING AFTER 30 MINUTES)” value ([1]; human, 0.5 h, 0.5 μM, pH 7.4) was >85% and the “RAT MICROSOMAL STABILITY (% REMAINING AFTER 30 MINUTES)” value [2, 5] was >85%.

With CC1(O)CC(c2ccnc(C(F)(F)F)c2)(C(O)c2ccccn2)C1 [Example 307, trans-3-[(S)-hydroxy(pyridin-2-yl)methyl]-1-methyl-3-[2-(trifluoromethyl)-pyridin-4-yl]cyclobutanol] the IC50 (human TRPV3; [4]) was 5100 to 20000 nM, the “HUMAN MICROSOMAL STABILITY (% REMAINING AFTER 30 MINUTES)” value ([1]; human, 0.5 h, 0.5 μM, pH 7.4) was 73% and the “RAT MICROSOMAL STABILITY (% REMAINING AFTER 30 MINUTES)” value [2, 5] was >85%.

For CC1(O)CC(c2cncc(C(F)(F)F)c2)(C(O)c2ccccn2)C1 [Example 308, cis-3-[(S)-hydroxy(pyridin-2-yl)methyl]-1-methyl-3-[5-(trifluoromethyl)-pyridin-3-yl]cyclobutanol], the IC50 (human TRPV3; [4]) was 501 to 1000 nM, the “HUMAN MICROSOMAL STABILITY (% REMAINING AFTER 30 MINUTES)” value ([1]; human, 0.5 h, 0.5 μM, pH 7.4) was 41% and the “RAT MICROSOMAL STABILITY (% REMAINING AFTER 30 MINUTES)” value [2, 5] was 13%.

With OC1CC(c2ccc(Cl)c(Cl)c2)(C(O)c2ncccn2)C1 [Example 312, (trans)-3-(3,4-dichlorophenyl)-3-((S)-hydroxy(pyrimidin-2-yl)methyl)-cyclobutanol] the IC50 (human TRPV3; [4]) was 1100 to 5000 nM, the “HUMAN MICROSOMAL STABILITY (% REMAINING AFTER 30 MINUTES)” value ([1]; human, 0.5 h, 0.5 μM, pH 7.4) was >85% and the “RAT MICROSOMAL STABILITY (% REMAINING AFTER 30 MINUTES)” value [2, 5] was >85%.

In the case of “pyridin-2-yl{1-[5-(trifluoromethyl)pyridin-3-yl]cyclobutyl}methanol [Example 110]”, the IC50 (human TRPV3; mostly average of n≧2, read-out: IC50 (actual measured value, shown parenthetically)) is reported as 500 nM, the IC50 (human TRPV3; [4]) is reported as 50 to 500 nM and the “HUMAN MICROSOMAL STABILITY (% REMAINING AFTER 30 MINUTES)” value [1, 3] is reported as 8.0%. For the same compound, the “RAT MICROSOMAL STABILITY (% REMAINING AFTER 30 MINUTES)” value [2, 3] was 2.8%.
